Reference: US8664384B2, “N6-(ferrocenmethyl)quinazolin-2,4,6-triamina (H2) and the derivatives and prodrugs thereof as antileishmanial, antiprotozoal, antiparasitic and antimicrobial agents” (priority 2010, dated 2014)
Like-named read-outs stand apart in the source and are kept apart here.

Tests used:
[1] = tested on: Leishmania mexicana MNYC/BZ/62/M379 reference strain; format: cell-based
Method: FIG. 3: A plot showing the H2 prodrug activity toward the in vitro growth of Leishmania Mexicana. To obtain a higher sensitivity in this experiment, the MNYC/BZ/62/M379 reference strain, which has a higher sensitivity to H2 than does MHOM/MX/01/Tab3, was used. The number of parasites/ml was determined at 72 hours of incubation using 100 mM of each compound in four replicates. The culture conditions were the same as described in FIG. 1.
The following is a list of Leishmania mexicana growth inhibition activity by the prodrugs compared to H2 and a control.

[2] = tested on: mice; experiment: in vivo toxicity studies in mice; conditions: oral, parenteral, or dermal administration in mice
Excerpt: (§1) Cytotoxicity against murine cells was not found in in vitro studies or in vivo studies using oral, parenteral, or dermal administration in mice.

[3] = tested on: murine cells; experiment: in vitro cytotoxicity against murine cells; format: cell-based; conditions: in vitro studies
Excerpt: as §1

[4] = tested on: microorganisms, parasites, and protozoa, including members of the Leishmania genus; experiment: antimicrobial, antiparasitic and leishmanicide activity (general statement); format: cell-based; conditions: from 0.1 μg/ml to greater than 100 μg/ml
Method: The N^6-(ferrocenmethyl)quinazoline-2,4,6-triamine compound, which we refer to as H2, presents antimicrobial, antiparasitic, and leishmanicide activity from 0.1 μg/ml to greater than 100 μg/ml. H2 can be used in the treatment of infections caused by microorganisms, parasites, and protozoa, including members of the Leishmania genus in particular.

[5] = tested on: Leishmania mexicana strain MHOM/MX/01/Tab3; experiment: in vitro growth of Leishmania mexicana, parasite count in Neubauer chamber; format: cell-based
Method: FIG. 1: The biological activity of H2 toward the in vitro growth of Leishmania mexicana strain MHOM/MX/01/Tab3. A growth curve collected after 72 hours of parasite cultivation in a Neubauer chamber in the presence of the H2 is shown. The H2 concentration is shown on the horizontal axis, whereas the number of parasites/ml is shown on the vertical axis. The experiment was performed at room temperature using high-glucose Dulbecco's Modified Eagle's Medium with 10% fetal bovine serum.
FIG. 2: Photograph obtained using an inverted microscope showing the inhibition of Leishmania growth by H2. The parasite culture shown in the left image was grown under the same conditions described in FIG. 1 but with the absence of H2.
At greater than 5 μg/ml, H2 is lethal to Leishmania in less than 5 hours. The in vitro effect is apparent at 30 minutes after application. The parasite structure is modified such that it loses its characteristic form, loses refringence, becomes spherical, and is incapable of multiplying. H2 has a CL50 of 2.6 μm/ml for the Leishmania mexicana MHOM/MX/01/Tab3 strain. The mechanism of cellular damage could not be identified by means of annexin for concentrations greater than 10 μg/ml; it is thought that a necrosis process rather than apoptosis is likely involved.

[6] = tested on: Leishmania mexicana cultures (Tab3 or M379 strain); experiment: elimination of parasites in Leishmania mexicana cultures; format: cell-based; conditions: 3 μg/ml; 10^6 parasites/ml; Dulbecco's medium with 4.5 mg/mL glucose and 10% fetal bovine serum
Method: H2 (3 μg/ml) eliminates more than 90% of the parasites in Leishmania mexicana cultures (Tab3 or M379 strain) with 10^6 parasites/ml in Dulbecco's medium modified with 4.5 mg/mL glucose and 10% fetal bovine serum.

Row | Compound | % of Leishmania Growth Inhibition [1] [%] | cytotoxicity in vivo [2] | cytotoxicity against murine cells [3] | % of Leishmania Growth Inhibition ([1]; 72 hours of incubation, 100 mM of each compound, four replicates, M379 strain (FIG. 3)) [%] | concentration at which antimicrobial, antiparasitic, and leishmanicide activity is presented [4] [µg/mL] | effect on parasite culture (inverted microscope, FIG. 2) ([5]; 1 μg/ml H2, conditions of FIG. 1) | time until lethal to Leishmania ([5]; H2 at greater than 5 μg/ml) | CL50 ([5]; Leishmania mexicana MHOM/MX/01/Tab3 strain) [μm/ml] | speed of killing the total amount of parasites compared to meglumine antimoniate, metronidazole or hydroxyurea ([5]; faster than previously described compounds, at doses ten-fold lower or less) | time at which the in vitro effect is apparent after application ([5]; in vitro) [min] | parasites eliminated [6]
1 | [Fe+2].c1cc[cH-]c1.c1ccc(NC[c-]2cccc2)cc1 [FBC, N-(ferrocenmethyl)aniline, reference compound] | 32 |  |  |  |  |  |  |  |  |  | 
2 | N^6-(ferrocenmethyl)quinazoline-2,4,6-triamine [Compound H2] |  | not found | not found | 100 | ≥ 0.1 | clear lack of growth and destruction of the parasite | less than 5 hours | 2.6 | up to 10 fold | 30 | more than 90%
